Source: patent US10478445B2, “Boronic acid derivatives of resveratrol for activating deacetylase enzymes” (Georgetown University, priority 2013, dated 2019)

What was measured:
[1] = biological target: T1, purified human SIRT1 enzyme (Homo sapiens, UniProt Q96EB6); assay: In vitro SIRT assay (Fluor-de-Lys-SIRT1 deacetylase assay); format: biochemical; conditions: 50 μM of suramin added to reaction
T1 construct: purchased Enzo Life Sciences
T1 sequence (Q96EB6 1-747): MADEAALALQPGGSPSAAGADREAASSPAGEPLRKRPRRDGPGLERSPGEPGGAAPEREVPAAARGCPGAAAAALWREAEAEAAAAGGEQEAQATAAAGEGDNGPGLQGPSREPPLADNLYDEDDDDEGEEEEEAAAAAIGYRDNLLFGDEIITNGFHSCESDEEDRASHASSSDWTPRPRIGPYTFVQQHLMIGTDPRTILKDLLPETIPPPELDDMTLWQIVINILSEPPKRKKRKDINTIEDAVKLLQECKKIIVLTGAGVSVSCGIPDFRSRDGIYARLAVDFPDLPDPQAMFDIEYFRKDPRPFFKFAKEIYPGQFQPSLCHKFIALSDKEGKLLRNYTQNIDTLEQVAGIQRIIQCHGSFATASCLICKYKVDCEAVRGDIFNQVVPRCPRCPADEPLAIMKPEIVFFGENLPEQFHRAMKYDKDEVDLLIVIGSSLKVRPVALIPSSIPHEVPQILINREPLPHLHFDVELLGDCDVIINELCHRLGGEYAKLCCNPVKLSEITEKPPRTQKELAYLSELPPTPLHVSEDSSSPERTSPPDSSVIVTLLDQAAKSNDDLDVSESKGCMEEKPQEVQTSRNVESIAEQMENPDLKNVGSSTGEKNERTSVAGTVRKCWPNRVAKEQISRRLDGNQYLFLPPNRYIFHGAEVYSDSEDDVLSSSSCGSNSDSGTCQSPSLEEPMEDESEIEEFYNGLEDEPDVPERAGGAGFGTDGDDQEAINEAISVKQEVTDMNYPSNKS
Protocol: The Fluor-de-Lys-SIRT1 and SIRT2 deacetylase assay were performed as manufacturer's instruction (Enzo Life Sciences, Farmingdale, N.Y.). For competition assay, 50 μM of suramin was added to reaction.

[2] = system: mtp53; assay: Western blot analysis of acetyl-mtp53 (K382) and mtp53 level; format: cell-based; conditions: HS578T; 10 μM suramin 1 hr, then 1 μM YK-3-237 23 hr
Protocol: Preparation of cell lysates and western blot analyses were performed. Antibodies were obtained from the following sources: Ac-p53 (K382; #2525), Ac-α-tubulin (K40; #3971), phospho-ACC (S78; #3661), and ACC (#3676) from Cell Signaling (Danvers, Mass.); PARP (#556494) from BD Pharmingen (San Jose, Calif.); p53 (V1003) from Biomeda (Foster City, Calif.); ERα (sc-543) and SIRT1 (sc-15404) from Santa Cruz (Santa Cruz, Calif.); α-tubulin, β-Actin (A1978), and horseradish peroxidase-conjugated secondary antibodies from Sigma (St. Louis, Mo.). Chemiluminescence reagent was obtained from Santa Cruz or Thermo Scientific (Rockford, Ill.).

[3] = biological target: T1, purified human SIRT1 enzyme; conditions: reported; cited from earlier work
[4] = system: acetyl-p53; conditions: reported; cited from earlier work

SMILES | effect on YK-3-237-mediated SIRT1 activation (competition assay) [1] | effect of pre-treatment on YK-3-237-mediated deacetylation and reduction of mtp53 [2] | in vitro SIRT1 activity toward nascent p53 peptide [3] | acetyl-p53 in cells [4]
Cc1ccc(C(=O)Nc2ccc(S(=O)(=O)O)c3cc(S(=O)(=O)O)cc(S(=O)(=O)O)c23)cc1NC(=O)c1cccc(NC(=O)Nc2cccc(C(=O)Nc3cc(C(=O)Nc4ccc(S(=O)(=O)O)c5cc(S(=O)(=O)O)cc(S(=O)(=O)O)c45)ccc3C)c2)c1 [suramin] | antagonized YK-3-237-mediated SIRT1 activation | reversed both deacetylation of mtp53 (K382) and reduction of mtp53 protein |  | 
O=C(Nc1ccccc1-c1cn2c(CN3CCNCC3)csc2n1)c1cnc2ccccc2n1 [SRT1720] |  |  | could not activate in vitro SIRT1 activity toward nascent p53 peptide | reduce acetyl-p53 in cells
